assay: recombinant barcode read abundance after kanamycin selection (control-corrected) (log10(CPM+1)); higher = more efficient recombination; sequences stand for … in AGTGCAGAGAAAATCGGCCAGTTTTCTCTGCCTGCAGTCCGCATGCCGT…AGATTTATGCAGCGGACTGCCTTTCTCCCAAAGTGATAAACCGGACAGTATCATGGACCGGTTTTCCCGGTAATCCGTATTTGCAAGGTTGGTTTCACT; site = the 11-nt target
Procedure, shortened: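 For this pooled screen, each oligo contained a promoter, a target, a barcode and the J23119-driven first 104 bases of the bridge RNA. Gibson cloning placed it into a vector supplying the remaining 73 bp and a T7-inducible recombinase, and the pool was co-electroporated into E. coli with a donor plasmid. Recombination efficiency is derived from barcode counts per million at recombinant junctions after averaging and control correction, and is expressed on a log scale as log10(CPM+1), with selection on chloramphenicol/ampicillin/kanamycin plus 0.1 mM IPTG against a chloramphenicol/ampicillin LB agar control.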
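Note: IS621 recombinase and bridge RNA in Escherichia coli cells.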

Row | Sequence | recombinant barcode read abundance (log10)
1 | GAGCCGACTTGGGTTCTAACCTGTTGCCT (site GAGCGGACTAG) | 0.274
2 | GAGCCGACTTGGGTTCTAACCTGTTGCCT (site GAGCTGACTAG) | 0.0365
3 | GAGCCGCCTTGGGTTCTAACCTGTTGCAT (site GAGCCGCCTAT) | 1.48
4 | GAGCCGCCTTGGGTTCTAACCTGTTGCAT (site GGGACGCCTAT) | 0.0756
5 | GAGCCGCCTTGGGTTCTAACCTGTTGCCG (site GAGCCACCTCA) | 0.118
6 | GAGCCGCCTTGGGTTCTAACCTGTTGCCG (site GAGCCGCCTCG) | 1.04
7 | GAGCCTACTTGGGTTCTAACCTGTTGCCT (site GAACCTACTCG) | 0.0224
8 | GAGCCTACTTGGGTTCTAACCTGTTGCCT (site GAGCCTACTAG) | 1.29
9 | GAGCCTACTTGGGTTCTAACCTGTTGCTA (site AAGCCTACTTA) | 0.25
10 | GAGCCTACTTGGGTTCTAACCTGTTGCTA (site GAGCCTACTTA) | 1.02
11 | GAGCGAGCTTGGGTTCTAACCTGTTGCTA (site GAGCGAGCTTA) | 1.31
12 | GAGCGAGCTTGGGTTCTAACCTGTTGCTA (site GAGCGGACTTA) | 0.267
13 | GAGCGCACTTGGGTTCTAACCTGTTGCGG (site GAGCGCACTCC) | 2.13
14 | GAGCGCACTTGGGTTCTAACCTGTTGCGG (site GAGCGCACTCT) | 1.51
15 | GAGCGCTCTTGGGTTCTAACCTGTTGCTA (site GAGCGCTCTAA) | 0.167
16 | GAGCGCTCTTGGGTTCTAACCTGTTGCTA (site GAGCGCTCTCA) | 0.223
17 | GAGCGCTCTTGGGTTCTAACCTGTTGCTA (site GAGCGCTCTGA) | 0.12
18 | GAGCGCTCTTGGGTTCTAACCTGTTGCTA (site GAGCGCTCTTA) | 0.636
19 | GAGCGCTCTTGGGTTCTAACCTGTTGCTC (site GAGCGCTCTAA) | 0.525
20 | GAGCGCTCTTGGGTTCTAACCTGTTGCTC (site GAGCGCTCTCA) | 0.0599
21 | GAGCGCTCTTGGGTTCTAACCTGTTGCTC (site GAGCGCTCTGA) | 1.18
22 | GAGCGCTCTTGGGTTCTAACCTGTTGCTC (site GAGCGCTCTTA) | 0.381

Row | Sequence | recombinant barcode read abundance (log10)
23 | GAGCGTACTTGGGTTCTAACCTGTTGCAT (site GAGAGTACTAT) | 0.257
24 | GAGCGTACTTGGGTTCTAACCTGTTGCAT (site GAGCGTACTAT) | 1.09
25 | GAGCGTACTTGGGTTCTAACCTGTTGCAT (site GAGGGTACTAT) | 0.0723
26 | GAGCGTACTTGGGTTCTAACCTGTTGCAT (site GAGTGTACTAT) | 0.0144
27 | GAGCGTCCTTGGGTTCTAACCTGTTGCTA (site AGCGAATCTCG) | 0.0924
28 | GAGCGTCCTTGGGTTCTAACCTGTTGCTA (site GAGCGTCCTTA) | 0.94
29 | GAGCTACCTTGGGTTCTAACCTGTTGCCT (site GAGCTACCTAG) | 1.46
30 | GAGCTACCTTGGGTTCTAACCTGTTGCCT (site GAGCTACCTCG) | 0.549
31 | GAGCTACCTTGGGTTCTAACCTGTTGCCT (site GAGCTACCTGG) | 0.172
32 | GAGCTACCTTGGGTTCTAACCTGTTGCCT (site GAGCTACCTTG) | 0.0234
33 | GAGCTGCCTTGGGTTCTAACCTGTTGCTT (site AAGCTGCCTAG) | 0.25
34 | GAGCTGCCTTGGGTTCTAACCTGTTGCTT (site GAGCTGCCTAA) | 1.3
35 | GAGGAGCCTTGGGTTCTAACCTGTTGCGT (site GAGGAGCCTAC) | 2.62
36 | GAGGAGCCTTGGGTTCTAACCTGTTGCGT (site TAGGAACCTAC) | 1.34
37 | GAGGCGGCTTGGGTTCTAACCTGTTGCTT (site GAGACGGCTAA) | 0.162
38 | GAGGCGGCTTGGGTTCTAACCTGTTGCTT (site GAGCCGGCTAA) | 0.149
39 | GAGGCGGCTTGGGTTCTAACCTGTTGCTT (site GAGGCGGCTAA) | 1.04
40 | GAGGCGGCTTGGGTTCTAACCTGTTGCTT (site GAGTCGGCTAA) | 0.0862
41 | GAGGCTCCTTGGGTTCTAACCTGTTGCCA (site GAGGCTCCTAG) | 2.19
42 | GAGGCTCCTTGGGTTCTAACCTGTTGCCA (site GAGGCTCCTCG) | 0.0289
43 | GAGGCTCCTTGGGTTCTAACCTGTTGCCA (site GAGGCTCCTGG) | 0.164
44 | GAGGCTCCTTGGGTTCTAACCTGTTGCCA (site GAGGCTCCTTG) | 0.365

Row | Sequence | recombinant barcode read abundance (log10)
45 | GAGGCTCCTTGGGTTCTAACCTGTTGCCT (site GAGGCTCCTAG) | 0.744
46 | GAGGCTCCTTGGGTTCTAACCTGTTGCCT (site GAGGCTCCTCG) | 0.0603
47 | GAGGCTCCTTGGGTTCTAACCTGTTGCCT (site GAGGCTCCTGG) | 0.137
48 | GAGGCTCCTTGGGTTCTAACCTGTTGCCT (site GAGGCTCCTTG) | 0.201
49 | GAGGGCCCTTGGGTTCTAACCTGTTGCCG (site GAGGGCCCTCA) | 0.29
50 | GAGGGCCCTTGGGTTCTAACCTGTTGCCG (site GAGGGCCCTCC) | 1.2
51 | GAGGGCCCTTGGGTTCTAACCTGTTGCCG (site GAGGGCCCTCG) | 1.96
52 | GAGGGCCCTTGGGTTCTAACCTGTTGCCG (site GAGGGCCCTCT) | 0.759
53 | GAGGGCCCTTGGGTTCTAACCTGTTGCGG (site GAGGGCCCTCA) | 1.94
54 | GAGGGCCCTTGGGTTCTAACCTGTTGCGG (site GAGGGCCCTCC) | 3.11
55 | GAGGGCCCTTGGGTTCTAACCTGTTGCGG (site GAGGGCCCTCG) | 0.81
56 | GAGGGCCCTTGGGTTCTAACCTGTTGCGG (site GAGGGCCCTCT) | 2.8
57 | GAGGGTACTTGGGTTCTAACCTGTTGCAT (site GAGAGTACTAT) | 1.16
58 | GAGGGTACTTGGGTTCTAACCTGTTGCAT (site GAGCGTACTAT) | 0.206
59 | GAGGGTACTTGGGTTCTAACCTGTTGCAT (site GAGGGTACTAT) | 2.69
60 | GAGGGTACTTGGGTTCTAACCTGTTGCAT (site GAGTGTACTAT) | 0.102
61 | GAGGGTCCTTGGGTTCTAACCTGTTGCGT (site GAGGGTCCTAA) | 0.194
62 | GAGGGTCCTTGGGTTCTAACCTGTTGCGT (site GAGGGTCCTAC) | 2.82
63 | GAGGGTCCTTGGGTTCTAACCTGTTGCGT (site GAGGGTCCTAG) | 1.86
64 | GAGGGTCCTTGGGTTCTAACCTGTTGCGT (site GAGGGTCCTAT) | 2.29
65 | GAGTACCCTTGGGTTCTAACCTGTTGCGT (site GAGAATCCTAC) | 0.107
66 | GAGTACCCTTGGGTTCTAACCTGTTGCGT (site GAGTACCCTAC) | 3.2

Row | Sequence | recombinant barcode read abundance (log10)
67 | GAGTAGCCTTGGGTTCTAACCTGTTGCGG (site GAGTAGCCTCC) | 2.59
68 | GAGTAGCCTTGGGTTCTAACCTGTTGCGG (site GAGTCGCCTCC) | 0.196
69 | GAGTAGCCTTGGGTTCTAACCTGTTGCGG (site GAGTGGCCTCC) | 0.3
70 | GAGTAGCCTTGGGTTCTAACCTGTTGCGG (site GAGTTGCCTCC) | 0.204
71 | GAGTGTACTTGGGTTCTAACCTGTTGCAT (site GAGAGTACTAT) | 0.208
72 | GAGTGTACTTGGGTTCTAACCTGTTGCAT (site GAGCGTACTAT) | 0.553
73 | GAGTGTACTTGGGTTCTAACCTGTTGCAT (site GAGGGTACTAT) | 0.029
74 | GAGTGTACTTGGGTTCTAACCTGTTGCAT (site GAGTGTACTAT) | 1.32
75 | GAGTGTTCTTGGGTTCTAACCTGTTGCTT (site GAGTGTTCTAA) | 0.277
76 | GAGTGTTCTTGGGTTCTAACCTGTTGCTT (site TGTACGACTCC) | 0.0677
77 | GATAACTCTTGGGTTCTAACCTGTTGCCT (site AATAACTCTAG) | 0.802
78 | GATAACTCTTGGGTTCTAACCTGTTGCCT (site CATAACTCTAG) | 0.329
79 | GATAACTCTTGGGTTCTAACCTGTTGCCT (site GATAACTCTAG) | 0.734
80 | GATAACTCTTGGGTTCTAACCTGTTGCCT (site TATAACTCTAG) | 0.315
81 | GATACTGCTTGGGTTCTAACCTGTTGCCT (site GAAACTGCTAG) | 0.0212
82 | GATACTGCTTGGGTTCTAACCTGTTGCCT (site GACACTGCTAG) | 0.434
83 | GATACTGCTTGGGTTCTAACCTGTTGCCT (site GAGACTGCTAG) | 0.0206
84 | GATACTGCTTGGGTTCTAACCTGTTGCCT (site GATACTGCTAG) | 0.504
85 | GATAGGACTTGGGTTCTAACCTGTTGCGT (site GATAGGACTAC) | 2.12
86 | GATAGGACTTGGGTTCTAACCTGTTGCGT (site TATAGGACTAC) | 2.03
